According to patent US20260242440A1, “NOVEL MEANS TO MODULATE NMDA RECEPTOR-MEDIATED TOXICITY” (FUNDAMENTAL PHARMA GMBH, priority 2018, published 2026):
“Also recorded” adds a separate entry of the source.

Experiments:
[1] = test system: primary mouse hippocampal neurons; experiment: NMDA induced cell death (excitotoxicity) in cultured primary neurons; assay type: cell-based; conditions: 30 min pre-treatment with 10 μM compound; NMDA 20 μM for 10 min or 24 hours; cell death 24 hours after challenge
[2] = test system: primary mouse hippocampal neurons; experiment: NMDA receptor induced mitochondrial membrane potential breakdown (Rh123 imaging); assay type: cell-based
Method: Coverslips with primary cultured neurons (DIV15-DIV17) were used to examine mitochondrial membrane potential (Ψm) and mitochondrial calcium signalling, which was performed at room temperature in CO2-independent culture medium (CICM) containing: 10 mM HEPES, 140 mM NaCl, 2.5 mM KCl, 1.0 mM MgCl2, 2.0 mM CaCl2, 1.0 mM Glycine, 35.6 mM Glucose and 0.5 mM Na-pyruvate. All images were obtained by a cooled-CCD camera (iXon 887, Andor) on an upright microscope (BX51WI, Olympus). Fluorescence excitation was provided by a xenon arc lamp in combination with an excitation filter wheel (MT-20, Olympus). Data were collected using Cell^R software (Olympus), analysed using ImageJ and quantified using Igor Pro (WaveMetrics). Ψm was detected with the small molecule fluorescence indicator Rhodamine 123 (Rh123; Molecular Probe™, R302). Primary cultured neurons were loaded with 4.3 μM Rh123 in CICM at 37° C. for 30 min, then washed and left in CICM for another 30 min before recording. At the end of each experiment, the mitochondrial uncoupler FCCP (5 μM, Sigma-Aldrich, Cat #C2920) was applied to the cells to reach the maximal Rh123 fluorescence intensity. Rh123 was imaged with 470±20 nm excitation and 525±25 nm emission wavelengths using a 20× objective. Rh123 fluorescence intensity was measured in the nucleus to minimize contamination from cytosolic mitochondrial signal and Rh123 fluorescence intensity was normalized to the maximum FCCP signal for each region of interest.
Mitochondrial dysfunction is a hallmark of NMDA receptor excitotoxicity and an early event en-route to neuronal death. A parameter that is often used to assess mitochondrial integrity is the mitochondrial membrane potential. A breakdown of the mitochondrial membrane potential can be observed after exposure of hippocampal or cortical neurons to NMDA and indicates excitotoxicity-associated mitochondrial dysfunction. Therefore, the inventors investigated the effect of polypeptides comprising the sequence of SEQ ID NO:5 or SEQ ID NO: 54 as well as of the control TRMP5 sequence (SEQ ID NO: 55) on mitochondrial membrane potential break down in primary mouse hippocampal neurons. Excitotoxicity leading to mitochondrial membrane potential break down was induced with bath application of 20 μM NMDA. After 11 minutes, the mitochondrial uncoupler, carbonylcyanide-p-trifluoromethoxyphenylhydrazone (FCCP) was added. Addition of FCCP leads to break-down of the mitochondrial membrane potential and served as a control of the test system.

[3] = test system: middle cerebral artery occlusion (MCAO) mouse stroke model; experiment: middle cerebral artery occlusion (MCAO) mouse stroke model, infarct volume; assay type: in vivo; conditions: rAAV delivered stereotactically to mouse cortex 3 weeks before MCAO; quantified 7 days post-injury; vs PBS control
Excerpt: Given the robust protective effect of SEQ ID NO:5 in cultured neurons, the inventors next analysed its neuroprotective potential in vivo using the middle cerebral artery occlusion (MCAO) mouse stroke model.
Stereotactic intracerebral injection to the cortex of mice: C57BL/6N male mice (8 weeks±5 days old) weighing 25±1 g were randomly grouped and anaesthetized with a mixture of Sedin©, Midazolam and Fentanyl®-Janssen and placed on a rodent stereotactic frame on a heat pad temperature controlled by a ATC1000 DC rectal thermometer (World Precision Instruments, Berlin). rAAV-SEQ ID NO:5) was infused into the left cortex (coordinates relative to Bregma: first site: AP 0.2 mm; ML 2.0; DV −2.0; second site: AP 0.2; ML 2.0; DV −1.8; third site: AP 0.2; ML 3.0; DV −4.0; forth site: AP 0.2; ML 3.0; DV −3.5.) using a Ultra Micro Pump III (World Precision Instruments, Berlin) to drive a 10 μl Nanofil syringe (World Precision Instruments, Berlin). […]
MCAO: Middle cerebral artery occlusion (MCAO) induced a permanent distal occlusion of the middle cerebral artery (MCA). […] The silver stained sections were scanned at 1200 dpi and infarct area was measured by using ImageJ software (NIH Image). Surgery was performed and ischemic damage was measured by an investigator who had no knowledge of the treatment group, rAAV or recombinant protein was applied by stereotactic injection or intranasal delivery.

Compound	NMDA receptor induced cell death (transient and chronic NMDA toxicity) [1]	protection of mitochondrial membrane potential from NMDA excitotoxicity ([2]; compound applied 30 min prior to recording, bath application of NMDA)	NMDA receptor induced mitochondrial membrane potential breakdown ([2]; polypeptides expressed via rAAV, bath application of 20 μM NMDA)	infarct volume [3]
CCN(CCN)Cc1cccc(Br)c1 [P4]	neuroprotective effect	significantly protect mitochondrial membrane potential from NMDA excitotoxicity		
SEQ ID NO:5: polypeptide, amino acid residues 633-689 of mouse TRPM4 (NSEERAARLLLRRCPLWGEATCLQLAMQADARAFFAQDGVQSLLTQKWWGEMDSTTP; listed as Mus musculus)			capable of preventing NMDA receptor induced mitochondrial membrane potential breakdown	significantly smaller; also recorded: effectively reduced the infarct volumes
